{"source": "patent US20200270225A1", "about": "“Chiral Diacylhydrazine Ligands for Modulating the Expression of Exogenous Genes via an Ecdysone Receptor Complex” (Intrexon Corporation, priority 2007, published 2020)", "key": {"B16 melanoma": {"test_system": "B16 melanoma", "experiment": "Anti-tumor efficacy with intratumoral transduced DCs in B16 melanoma mouse model", "assay_type": "in vivo, C57/BL6 mice", "method": "A comparative analysis of various administration routes and doses of (R)-2-ethyl-3-methoxy-benzoic acid N′-(1-tert-butyl-butyl)-N′-(3,5-dimethylbenzoyl)-hydrazide on the anti-tumor efficacy of intra-tumorally delivered DCs transduced with an adenoviral vector encoding murine interleukin-12p70 (DC-SP1(IL-12p70)) were carried out in a B16 melanoma mouse model. […] Optimal anti-tumor effects occurred at ≥30 mg/kg (R)-2-ethyl-3-methoxy-benzoic acid N′-(1-tert-butyl-butyl)-N′-(3,5-dimethyl-benzoyl)-hydrazide dose administered with (DC-SP1(IL-12p70)) therapy.\nThis drug dependent effect was associated with: transgene expression in the tumor and DLN; prolonged Ad-DCs survival in the tumor microenvironment; migration and persistence of AdDCs in the DLN; and induction of anti B16 CD8+ T cells.\nWhen tumor-free animals were re-challenged, on day 50 (post-initial tumor inoculation), these animals were refractory to B16 melanoma, but not MC38 colon carcinoma, progression."}, "Caco-2 cell monolayers": {"test_system": "Caco-2 cell monolayers", "experiment": "Bidirectional permeability through Caco-2 cell monolayers", "assay_type": "in vitro ADME", "method": "The test compounds were prepared as 5 μM in HBSSg with a maximum DMSO concentration <1%. Confluent monolayers of Caco-2 cells, 21 to 28 days old were prepared. The receiver well was prepared with 1% BSA in modified Hanks buffer HBSSg, and the apical and basolateral sides of Caco-2 cell were maintained at pH 7.4±0.2. Two monolayers were dosed in each direction (N=2): the apical side was dosed for (A→B) assessment and the basolateral side was dosed for (B→A) assessment. The test compound concentration was measured for both apical and basolateral sides at a time point of 120 minutes using a generic LC/MS/MS method with a minimum 4 point calibration curve. The values in FIG. 13 are: the percent recovery of the test compound from Transwell® wells containing Caco-2 cell monolayers; apparent permeability (Papp) in both directions; efflux ratio (Papp B→A)/(Papp A→B); absorption potential of a test compound classified as either Low or High; efflux classification is significant when efflux ≥3.0 and Papp (B→A)≥1.0×10-6 cm/s. […] Also, the efflux rate for the R enantiomer is lower."}, "Microsomal metabolism": {"experiment": "Microsomal metabolism", "assay_type": "in vitro ADME, human", "conditions": "5 μM, 1.0 mg/mL microsomal protein, 1 mM NADPH, 60 minutes", "method": "The test compounds were prepared as 5 μM solutions in DMSO (concentration less than 0.25%), methanol, or acctonitrile. Mixed gender human liver microsomes were pooled from a ≥10 donors, and incubated with 1 mM NADPH. The test compound was incubated at 37° C. in buffer containing 1.0 mg/mL of microsomal protein with 1 mM NADPH. At 0 and 60 minutes, the mixture was sampled and monitored by LC/MS/MS for the peak area corresponding to the test compound, with the range of 10-100%. The assay was run in duplicate (N=2 separate incubations). The data reported in FIG. 15 is percent remaining of testosterone standard and percent remaining of the test compound."}}, "data": [{"molecule": "CCC[C@@H](N(NC(=O)c1cccc(OC)c1CC)C(=O)c1cc(C)cc(C)c1)C(C)(C)C", "note": "[Example 1, (R)-3,5-Dimethyl-benzoic Acid N-(1-tert-butyl-butyl)-N′-(2-ethyl-3-methoxy-benzoyl)-hydrazide]", "values": [{"measurement": "protective immunity on tumor re-challenge", "setting": "B16 melanoma; 10^7 AdDCs plus 13 day ligand treatment, re-challenge day 50", "value": "protective immunity that was tumor-specific"}, {"measurement": "tumor regression and animal survival", "setting": "B16 melanoma; intratumoral AdDCs carrying murine IL-12, systemic ligand within 48 hours following AdDCs injection", "value": "complete regression of tumor and prolonged animal survival"}, {"measurement": "dose for optimal anti-tumor effects", "setting": "B16 melanoma; with DC-SP1(IL-12p70) therapy", "value": "≥ 30", "unit": "mg/kg"}, {"measurement": "anti-tumor efficacy", "setting": "B16 melanoma; with DC-SP1(IL-12p70) therapy, i.p. injection, oral gavage or diet admix", "value": "anti-tumor efficacy was demonstrated"}, {"measurement": "efflux rate, compared", "setting": "Caco-2 cell monolayers; Caco-2", "value": "lower"}, {"measurement": "apparent permeability (Papp), compared", "setting": "Caco-2 cell monolayers; Caco-2, A→B and B→A, 5 μM, 120 minutes", "value": "more permeable than the racemate in both directions"}, {"measurement": "stability to metabolism in human liver microsomes, compared", "setting": "Microsomal metabolism", "value": "slightly more stable"}]}]}
